Measurements taken from patent US4345938A, “Herbicidal 2-haloacetanilides” (Monsanto Company, priority 1980, dated 1982).
Read-outs that look alike come from different tables or passages of the source.

How the values were obtained:
Sagittaria trifolia [1] = assay: Greenhouse transplant rice test, ST; type: in vivo
Description: (§1) The test procedure used in this greenhouse test is as follows: Ray silt loam top soil containing about 0.05% by weight of krillium and sifted through a […] screen is fumigated about 5-10 days prior to use. Pots are then filled with said Ray silt loam soil to a level to allow for a 1 in. (2.54 cm) flooding depth. Rice plants (Bluebelle) of 2 to 3 weeks age are transplanted to the pots and bulbs or seeds of the test weeds also planted in the pots. The pots are then flooded and the test chemical applied to the surface of the flood water. The flood water is reduced to allow for germination of the Echinochloa crus-galli (barnyardgrass) seed and subsequently reflooded and maintained in that condition. Observations of percent inhibition using a scale of 0-100% are made about 3 weeks after transplant (WAT).
(§2) The test data in Table III for all compounds was obtained under identical test conditions. The weeds used in the tests herein have the following abbreviations in the tables: Echinochloa crus-galli (EC), Monochloria vaginalis (MV), Cyperus Serotinus (CS), Eleocharis Kuroguwai (EK) and Sagittaria trifolia (ST).

Rice [2] = assay: Greenhouse transplant rice test, rice injury; type: in vivo, Rice (Bluebelle); settings: Oryza sativa, about 3 WAT, read-out: Percent Inhibition, Rice
Description: as §1, §2

Eleocharis kuroguwai = assay: Greenhouse transplant rice test, EK; type: in vivo; settings: about 3 WAT, read-out: Percent Inhibition, EK
Description: as §1, §2

Sagittaria trifolia [3] = assay: Field transplant rice test, applied 0 DAT, ST; type: in vivo; settings: 0 h, read-out: Percent Inhibition, ST; for inhibition at 375 g/ha: 0.375 Kg/Ha; for inhibition at 750 g/ha: 0.75 Kg/Ha; for inhibition at 1500 g/ha: 1.5 Kg/Ha; for inhibition at 3000 g/ha: 3.0 Kg/Ha
Method in brief: (§3)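 Field test in transplanted rice, herbicide applied as granules (2.5% or 5.0% w/w active) at transplanting (0 DAT). Rates from 3.0 kg/ha down to 0.375 kg/ha. Weed control observed weekly from 2 to 6 weeks after transplant, reported at 2, 4 and 6 WAT.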

Rice [4] = assay: Field transplant rice test, applied 0 DAT, rice injury; type: in vivo; settings: for inhibition at 375 g/ha / inhibition at 750 g/ha / inhibition at 1500 g/ha / inhibition at 3000 g/ha: Oryza sativa, 0 h, read-out: Percent Inhibition, Rice; for inhibition at 375 g/ha: 0.375 Kg/Ha; for inhibition at 750 g/ha: 0.75 Kg/Ha; for inhibition at 1500 g/ha: 1.5 Kg/Ha; for inhibition at 3000 g/ha: 3.0 Kg/Ha
Method in brief: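 Field test in transplant rice with herbicide applied as granules at transplanting (0 DAT), at rates from 3.0 kg/ha down to 0.375 kg/ha. Injury was rated weekly from 2 to 6 weeks after transplant. Granules held 2.5% or 5.0% herbicide by weight, depending on compound.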

Rice [5] = assay: Field transplant rice test, applied 9 DAT, rice injury; type: in vivo; settings: for inhibition at 375 g/ha / inhibition at 750 g/ha / inhibition at 1500 g/ha / inhibition at 3000 g/ha: Oryza sativa, 216 h, read-out: Percent Inhibition, Rice; for inhibition at 375 g/ha: 0.375 Kg/Ha; for inhibition at 750 g/ha: 0.75 Kg/Ha; for inhibition at 1500 g/ha: 1.5 Kg/Ha; for inhibition at 3000 g/ha: 3.0 Kg/Ha
Method in brief: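 Field transplant rice; herbicides applied as granules (2.5% by weight active, 5.0% for one prior-art comparator) at 9 days after transplant. Rates from 3.0 kg/ha (2.67 lb/A) down to 0.375 kg/ha (0.34 lb/A). Crop injury observed weekly from 3 to 7 weeks after transplant.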

Cyperus serotinus [6] = assay: Field transplant rice test, applied 0 DAT, CS; type: in vivo; settings: 0 h, read-out: Percent Inhibition, CS; for inhibition at 375 g/ha: 0.375 Kg/Ha; for inhibition at 750 g/ha: 0.75 Kg/Ha; for inhibition at 1500 g/ha: 1.5 Kg/Ha; for inhibition at 3000 g/ha: 3.0 Kg/Ha
Method in brief: as §3

Cyperus serotinus [7] = assay: Field transplant rice test, applied 9 DAT, CS; type: in vivo; settings: for inhibition at 375 g/ha / inhibition at 750 g/ha / inhibition at 1500 g/ha / inhibition at 3000 g/ha: Cyperus serotinus, 216 h, read-out: Percent Inhibition, CS; for inhibition at 375 g/ha: 0.375 Kg/Ha; for inhibition at 750 g/ha: 0.75 Kg/Ha; for inhibition at 1500 g/ha: 1.5 Kg/Ha; for inhibition at 3000 g/ha: 3.0 Kg/Ha
Method in brief: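 Field test in transplanted rice, herbicides applied as granules (2.5% or 5.0% w/w active) 9 days after transplant at 3.0 down to 0.375 kg/ha. Weed control observed weekly from 3 to 7 weeks after transplant.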

With CCCCOc1cccc(CC)c1N(C)C(=O)CCl [Example 1, N-methyl-2'-n-butoxy-6'-ethyl-2-chloroacetanilide] the “selective control of ST in rice” value (Sagittaria trifolia [1]; 0.56 kg/ha) was “positive selective control”, the inhibition at 280 g/ha (Sagittaria trifolia [1]; Sagittaria trifolia, 0.28 Kg/Ha, about 3 WAT, read-out: Percent Inhibition, ST) was 75% and the inhibition at 560 g/ha (Sagittaria trifolia [1]; Sagittaria trifolia, 0.56 Kg/Ha, about 3 WAT, read-out: Percent Inhibition, ST) was 85%. The inhibition at 1120 g/ha (Sagittaria trifolia [1]; Sagittaria trifolia, 1.12 Kg/Ha, about 3 WAT, read-out: Percent Inhibition, ST) was 85%, the inhibition at 2240 g/ha (Sagittaria trifolia [1]; Sagittaria trifolia, 2.24 Kg/Ha, about 3 WAT, read-out: Percent Inhibition, ST) was 90% and the inhibition at 280 g/ha (Rice [2]; 0.28 Kg/Ha) was 5%. The inhibition at 560 g/ha (Rice [2]; 0.56 Kg/Ha) was 0%, the inhibition at 1120 g/ha (Rice [2]; 1.12 Kg/Ha) was 15% and the inhibition at 2240 g/ha (Rice [2]; 2.24 Kg/Ha) was 20%. The inhibition at 280 g/ha (Eleocharis kuroguwai; 0.28 Kg/Ha) was 100%, the inhibition at 560 g/ha (Eleocharis kuroguwai; 0.56 Kg/Ha) was 100% and the inhibition at 1120 g/ha (Eleocharis kuroguwai; 1.12 Kg/Ha) was 100%. The inhibition at 2240 g/ha (Eleocharis kuroguwai; 2.24 Kg/Ha) was 100%, the inhibition at 375 g/ha (Sagittaria trifolia [3]; 2 WAT) was 42% and the inhibition at 375 g/ha (Sagittaria trifolia [3]; 4 WAT) was 8%. For the same compound, the inhibition at 375 g/ha (Sagittaria trifolia [3]; 6 WAT) was 5%, the inhibition at 750 g/ha (Sagittaria trifolia [3]; 2 WAT) was 43% and the inhibition at 750 g/ha (Sagittaria trifolia [3]; 4 WAT) was 12%. For the same compound, the inhibition at 750 g/ha (Sagittaria trifolia [3]; 6 WAT) was 8%, the inhibition at 1500 g/ha (Sagittaria trifolia [3]; 2 WAT) was 30% and the inhibition at 1500 g/ha (Sagittaria trifolia [3]; 4 WAT) was 8%. For the same compound, the inhibition at 1500 g/ha (Sagittaria trifolia [3]; 6 WAT) was 5%, the inhibition at 3000 g/ha (Sagittaria trifolia [3]; 2 WAT) was 47% and the inhibition at 3000 g/ha (Sagittaria trifolia [3]; 4 WAT) was 22%. For the same compound, the inhibition at 3000 g/ha (Sagittaria trifolia [3]; 6 WAT) was 18%, the safety in rice (Rice [4]) was “safe in rice at rates above 1.5 kg/ha and slightly less than 3.0 kg/ha” and the inhibition at 375 g/ha (Rice [4]; 2 WAT) was 10%. It also gave an inhibition at 375 g/ha (Rice [4]; 4 WAT) of 7%, an inhibition at 375 g/ha (Rice [4]; 6 WAT) of 5% and an inhibition at 750 g/ha (Rice [4]; 2 WAT) of 3%. For the same compound, the inhibition at 750 g/ha (Rice [4]; 4 WAT) was 0%, the inhibition at 750 g/ha (Rice [4]; 6 WAT) was 2% and the inhibition at 1500 g/ha (Rice [4]; 2 WAT) was 5%. It also gave an inhibition at 1500 g/ha (Rice [4]; 4 WAT) of 0%, an inhibition at 1500 g/ha (Rice [4]; 6 WAT) of 2% and an inhibition at 3000 g/ha (Rice [4]; 2 WAT) of 25%. It also gave an inhibition at 3000 g/ha (Rice [4]; 4 WAT) of 22%, an inhibition at 3000 g/ha (Rice [4]; 6 WAT) of 23% and an inhibition at 375 g/ha (Rice [5]; 3 WAT) of 13%. The inhibition at 375 g/ha (Rice [5]; 5 WAT) was 7%, the inhibition at 375 g/ha (Rice [5]; 7 WAT) was 7% and the inhibition at 750 g/ha (Rice [5]; 3 WAT) was 7%. The inhibition at 750 g/ha (Rice [5]; 5 WAT) was 2%, the inhibition at 750 g/ha (Rice [5]; 7 WAT) was 0% and the inhibition at 1500 g/ha (Rice [5]; 3 WAT) was 10%. The inhibition at 1500 g/ha (Rice [5]; 5 WAT) was 7%, the inhibition at 1500 g/ha (Rice [5]; 7 WAT) was 5% and the inhibition at 3000 g/ha (Rice [5]; 3 WAT) was 15%. The inhibition at 3000 g/ha (Rice [5]; 5 WAT) was 15%, the inhibition at 3000 g/ha (Rice [5]; 7 WAT) was 10% and the “rate at which safety in rice is maintained” value (Rice [5]; maximum test rate) was no less than 3.0 kg/ha. The inhibition at 375 g/ha (Cyperus serotinus [6]; 2 WAT) was 77%, the inhibition at 375 g/ha (Cyperus serotinus [6]; 4 WAT) was 73% and the inhibition at 375 g/ha (Cyperus serotinus [6]; 6 WAT) was 50%. The inhibition at 750 g/ha (Cyperus serotinus [6]; 2 WAT) was 62%, the inhibition at 750 g/ha (Cyperus serotinus [6]; 4 WAT) was 53% and the inhibition at 750 g/ha (Cyperus serotinus [6]; 6 WAT) was 25%. It also gave an inhibition at 1500 g/ha (Cyperus serotinus [6]; 2 WAT) of 92%, an inhibition at 1500 g/ha (Cyperus serotinus [6]; 4 WAT) of 83% and an inhibition at 1500 g/ha (Cyperus serotinus [6]; 6 WAT) of 73%. The inhibition at 3000 g/ha (Cyperus serotinus [6]; 2 WAT) was 95%, the inhibition at 3000 g/ha (Cyperus serotinus [6]; 4 WAT) was 99% and the inhibition at 3000 g/ha (Cyperus serotinus [6]; 6 WAT) was 100%. It also gave an inhibition at 375 g/ha (Cyperus serotinus [7]; 3 WAT) of 100%, an inhibition at 375 g/ha (Cyperus serotinus [7]; 5 WAT) of 98% and an inhibition at 375 g/ha (Cyperus serotinus [7]; 7 WAT) of 97%. The inhibition at 750 g/ha (Cyperus serotinus [7]; 3 WAT) was 93%, the inhibition at 750 g/ha (Cyperus serotinus [7]; 5 WAT) was 93% and the inhibition at 750 g/ha (Cyperus serotinus [7]; 7 WAT) was 95%. The inhibition at 1500 g/ha (Cyperus serotinus [7]; 3 WAT) was 82%, the inhibition at 1500 g/ha (Cyperus serotinus [7]; 5 WAT) was 100% and the inhibition at 1500 g/ha (Cyperus serotinus [7]; 7 WAT) was 67%. For the same compound, the inhibition at 3000 g/ha (Cyperus serotinus [7]; 3 WAT) was 100%, the inhibition at 3000 g/ha (Cyperus serotinus [7]; 5 WAT) was 100% and the inhibition at 3000 g/ha (Cyperus serotinus [7]; 7 WAT) was 100%. The “selectivity factor (GR15/GR85), CS in transplant rice” value (Cyperus serotinus [7]; between 3 WAT and 7 WAT) was 16.
